One compound from patent US20100324285A1, “ANTIINFLAMMATORY AGENT COMPRISING 2-AMINOPHENOL OR DERIVATIVE THEREOF AS ACTIVE INGREDIENT” (priority 2006, published 2010) can be followed below.

Bounds are passed on as bounds.

The test system of one test is RBL-2H3. Put plainly: Degranulation reaction of basocyte (β-hexosaminidase release). The test is classed as cell-based, rat. How it is done: Degranulation rate (%) and inhibition rate of degranulation (%) were calculated based on the measurements of β-hexosaminidase activity in the granules released from the cells by degranulation reaction.
Rat cancer cells from basocyte RBL-2H3(catalognumber“JCRB0023”, commercialized by Health Science Research Resources Bank of Japan Health Sciences Foundation), known to be degranulated by cross-linkage of IgE, were used after cultured in a MEM medium (commercialized by Nissui Pharmaceutical Co., Ltd.) supplemented with 10% (v/v) FCS.
The above cells were recovered from a flask by conventional trypsin-EDTA treatment, then suspended in a MEM medium supplemented with 10% (v/v) FCS to give a cell concentration of 5×10^5 cells/ml. The suspension was inoculated to a 24-well microplate in a volume of 400 μl per well, cultured in a 5% (v/v) carbon dioxide incubator for 3 to 5 hours, then admixed with 0.625 μg/ml of anti dinitrophenol (hereinafter abbreviated as “DNP”) mouse IgE (commercialized by Sigma-Aldrich, Inc., diluted by MEM medium supplied with 10% (v/v) FCS) in a volume of 100 μl per well to sensitize the cells by IgE (a final concentration of the anti DNP-IgE was 0.125 μg/ml). After the cells were cultured in the 5% (v/v) carbon dioxide incubator overnight, the supernatant was removed by suction, and then each well was washed twice with Siraganian buffer (119 mM NaCl, 5 mM KCl, 0.4 mM MgCl2, 25 mM piperazine-N,N″-bis(2-ethane sulfonic acid) (PIPES), 40 mM NaOH, pH 7.2) by 500 μl per well. After admixed with Siraganian buffer containing 0.1% bovine serum albumin (BSA), 5.6 mM glucose and 1 mM CaCl2 (hereinafter described as “BSA-containing Siraganian buffer) in a volume of 160 μl per well, the microplate was warmed at 37° C. for 15 minutes. As test samples, 2-aminophenoxazine-3-one (questiomycin A), arbutin having skin-whitening effect and oxatomide used as therapeutic agents for allergic diseases (positive control) were diluted with BSA-containing Siraganian buffer to give the concentrations shown in Table 3, any of the test samples was added by 20 μl per well, then the microplate was warmed at 37° C. for 15 minutes (wells with the test samples). The well with any of the test samples was admixed with DNP-albumin (commercialized by Sigma-Aldrich, Inc.) diluted with BSA-containing Siraganian buffer to give a concentration of 50 μg/ml by 20 μl per well, and warmed at 37° C. for 15 minutes. After the 24-well microplate was cooled on ice for 10 minutes, the supernatant was collected and 100 μl thereof was injected into a 96-well microplate to measure the β-hexosaminidase activity in the supernatant. As negative control, BL-2H3 cells were cultured and treated in the same way as the wells admixed with the test samples except for that FCS-supplemented MEM medium containing no antibody was used, and the β-hexosaminidase activity in the supernatant was measured (the well without IgE sensitization). After the supernatants were removed from some of the wells without IgE sensitization, the wells were washed twice with BSA-containing Siraganian buffer and admixed with BSA-containing Siraganian buffer by 200 μl per well. The cells were broken by twice repeating freezing at −80° C. and thawing, whole medium containing the broken cells was collected, centrifuged at 1,500 rpm for 10 minutes, and then 100 μl of the supernatant was injected into a 96-well microplate to measure the β-hexosaminidase activity of the whole granule extract.
Each well of the 96-well microplate injected with any of the supernatant from the wells with the test samples, the supernatant from the wells without IgE sensitization or the whole granule extract described above was admixed with 50 μl of citrate buffer (pH 4.5) containing 1 mM 4-nitrophenyl-N-acetyl-β-glucosaminide (PNAG) as substrate, kept at 37° C. for 1 hour, and then the reaction was stopped by adding 50 μl of 0.1 M sodium carbonate (pH 10.5). […]

A further test concerns β-hexosaminidase. Put plainly: Direct inhibition of β-hexosaminidase activity of whole granule extract. Format: biochemical, rat. To be noted: 40 μM added. How it is done: Separately, the whole granule extract described above was injected into a 96-well microplate by 50 μl per well. Each well was admixed with 50 μl of 0.1 M citrate buffer (pH 4.5) containing 1 mM PNAC and warmed at 37° C. for one hour. The reaction was stopped by adding 50 μl of 0.1 M sodium carbonate (pH 10.5), measuring the absorbance at 405 to 650 nm. As control, the same measurement as described above was carried out using BSA-containing Siraganian buffer alone. […] The resultant data was obtained by averaging the measurement values from 3 wells each of the test sample or the whole granule extract.

In test [1] the test system is NHDF, normal fibroblast from human fetus. Put plainly: Collagen production by NHDF, Sircol Collagen Assay. The test is classed as cell-based. To be noted: 6 days; for Collagen production (μg/well), AA-2G addition: 50 μM AA-2G; for Collagen production (μg/well), AA-2G free: no AA-2G. How it is done:
NDHF cells (commercialized by Kurabo Industries Ltd. Osaka, Japan, catalog No. “KF-4001”) were suspended in D-MEM supplemented with 10 (v/v) % FCS to give a concentration of 5×10^5 cells/ml, and the suspension was sown in 96-well microplate by 50 μl per well. […] After cultured at 37° C. for a day, the supernatant was removed and any one of the samples and D-MEM medium supplemented with 10 (v/v) % FCS containing 100 μM AA-2G (a final concentration of 50 μM) or D-MEM medium supplemented with 10 (v/v) % FCS not containing AA-2G were added by 100 μl per well, and cultured at 37° C. for 3 days in 5 (v/v) % CO2 atmosphere. […] After the culture supernatant was removed, 1 M acetate solution containing 1 mg/ml of pepsin (commercialized by SIGMA, Inc.) was added by 50 μl per well and the plate was shaken at room temperature for 4 hours with a plate mixer for pepsin digestion. The digest was collected in a 1.5 ml-tube by pipetting, admixed with 200 μl per tube of Dye Reagent of Sircol Collagen Assay Kit (commercialized by Biocolor Ltd.), and allowed to react at room temperature for 30 minutes by inversely mixing. The supernatant of the reaction mixture was completely removed bycentrifugation (4° C., 15,000 rpm, 10 minutes), […] dissolved in 50 μl of 1 N NaOH, the resulting supernatant was measured for its absorbance at 560 nm to 650 nm. […] According to the standard curve, the amount of collagen in the pepsin digest of the cells was calculated.

What is called inhibition is the drop in the measured response relative to a control, in per cent.

For `Nc1cc2nc3ccccc3oc-2cc1=O` [2-Aminophenoxazine-3-one, 2-aminophenoxazine-3-one], the inhibition at 0.63 µM with RBL-2H3 (Rattus norvegicus, RBL-2H3, 0.63 μM, read-out: Inhibition intensity of degranulation) was -30 to 30%. Besides, the inhibition at 5 µM with RBL-2H3 (Rattus norvegicus, RBL-2H3, 5 μM, read-out: Inhibition intensity of degranulation) lay in the range of 30 to 50%. Moreover, the inhibition at 10 µM in the test on RBL-2H3 (Rattus norvegicus, RBL-2H3, 10 μM, read-out: Inhibition intensity of degranulation) was not below 50%. Further, in the test with RBL-2H3 (Rattus norvegicus, RBL-2H3, 23 μM, read-out: Inhibition intensity of degranulation), the inhibition at 23 µM was not below 50%. The inhibition at 31.3 µM in the test with RBL-2H3 (Rattus norvegicus, RBL-2H3, 31.3 μM, read-out: Inhibition intensity of degranulation) is not below 50%. In addition, in the test on RBL-2H3 (Rattus norvegicus, RBL-2H3, 40 μM, read-out: Inhibition intensity of degranulation), the inhibition at 40 µM is not below 50%. The “concentration at which inhibiting activity on degranulation was exerted” value in the test on RBL-2H3 (summary of Table 3) was not below 5 µM. Also, in the test on β-hexosaminidase, the “inhibition rate of β-hexosaminidase activity” value is listed as −9.9%. Further, the “Collagen production (μg/well), AA-2G addition” value came to 1.32 ± 0.45 μg/well in test [1] (QA 0.125 μM); 1.64 ± 0.21 μg/well in test [1] (QA 0.25 μM); 1.57 ± 0.18 μg/well in test [1] (QA 0.5 μM); 1.03 ± 0.22 μg/well in test [1] (QA 1.0 μM); 0.58 ± 0.06 μg/well in test [1] (QA 2.0 μM). The “Collagen production (μg/well), AA-2G free” value in test [1] (QA 0.125 μM) was found to be 0.66 ± 0.05 μg/well; in test [1] (QA 0.25 μM) it was 0.64 ± 0.06 μg/well; in test [1] (QA 0.5 μM), 0.63 ± 0.07 μg/well; in test [1] (QA 1.0 μM) it was 0.71 ± 0.10 μg/well; in test [1] (QA 2.0 μM), 0.70 ± 0.16 μg/well.
